Assay results published in patent US11339136B2 (Novartis AG, priority 2016, dated 2022).

Target: T1, hNLRP3 (Homo sapiens, UniProt Q96P20)
T1 construct: THP-1 cells were purchased from the American Type Culture Collection; host or cells: THP-1 cells, PMA-differentiated
Assay: IL-1β production in PMA-differentiated THP-1 cells stimulated with gramicidin
Format: cell-based
Settings: gramicidin 5 μM, IL-1β in supernatant, Table 2
Experimental: Bioassay: IL-1β Production in PMA-Differentiated THP-1 Cells Stimulated with Gramicidin. Procedure 1:
Cell culture—THP-1 cells were purchased from the American Type Culture Collection and sub-cultured according to instructions from the supplier. Prior to experiments, cells were cultured in RPMI 1640 containing 10% heat inactivated FBS, penicillin (100 units/ml) and streptomycin (100 μg/ml), and maintained in log phase prior to experimental setup. Prior to the experiment THP-1 were treated with PMA (Phorbol 12-myristate 13-acetate) (10 μg/ml) for 24 hours. The day of the experiment the media was removed and attaching cells were treated with trypsin for 2 minutes, cells were then collected, washed with PBS (phosphate buffer saline), spin down, resuspended in 2% heat inactivated FBS with RPMI at a concentration of 1×10^6 cells/ml, and 100 ul was plated in a 96 well plate. Cells were incubated with compounds for 1 hours and then stimulated with Gramicidin (5 μM) (Enzo) for 2 hours. Cell free supernatant was collected and the production of IL-1β was evaluated by ELISA. Compounds were dissolved in dimethyl sulfoxide (DMSO) and added to the culture medium to achieve desired concentration (e.g. 100, 30, 10, 3, 1, 0.3 or 0.1 μM). A vehicle only control was run concurrently with each experiment. Final DMSO concentration was 1%.
THP-1 cells were purchased from the American Type Culture Collection and sub-cultured according to instructions from the supplier. Prior to experiments, cells were cultured in complete RPMI 1640 (containing 10% heat inactivated FBS, penicillin (100 units/ml) and streptomycin (100 μg/ml)), and maintained in log phase prior to experimental setup. Prior to the experiment THP-1 were treated with PMA (Phorbol 12-myristate 13-acetate) (20 ng/ml) for 16-18 hours. On the day of the experiment the media was removed and adherent cells were detached with trypsin for 5 minutes. Cells were then harvested, washed with complete RPMI 1640, spun down, resuspended in RPMI 1640 (containing 2% heat inactivated FBS, penicillin (100 units/ml) and streptomycin (100 μg/ml). The cells were plated in a 384-well plate at a density of 50,000 cells/well (final assay volume 50 μl). Compounds were dissolved in dimethyl sulfoxide (DMSO) and added to the culture medium to achieve desired concentration (e.g. 100, 33, 11, 3.7, 1.2, 0.41, 0.14, 0.046, 0.015, 0.0051, 0.0017 μM). Cells were incubated with compounds for 1 hour and then stimulated with gramicidin (5 μM) (Enzo) for 2 hours. Cell free supernatant was collected and the production of IL-1β was evaluated by HTRF (cisbio). A vehicle only control was run concurrently with each experiment. Final DMSO concentration was 0.38%.

T1 sequence (Q96P20 whole entry): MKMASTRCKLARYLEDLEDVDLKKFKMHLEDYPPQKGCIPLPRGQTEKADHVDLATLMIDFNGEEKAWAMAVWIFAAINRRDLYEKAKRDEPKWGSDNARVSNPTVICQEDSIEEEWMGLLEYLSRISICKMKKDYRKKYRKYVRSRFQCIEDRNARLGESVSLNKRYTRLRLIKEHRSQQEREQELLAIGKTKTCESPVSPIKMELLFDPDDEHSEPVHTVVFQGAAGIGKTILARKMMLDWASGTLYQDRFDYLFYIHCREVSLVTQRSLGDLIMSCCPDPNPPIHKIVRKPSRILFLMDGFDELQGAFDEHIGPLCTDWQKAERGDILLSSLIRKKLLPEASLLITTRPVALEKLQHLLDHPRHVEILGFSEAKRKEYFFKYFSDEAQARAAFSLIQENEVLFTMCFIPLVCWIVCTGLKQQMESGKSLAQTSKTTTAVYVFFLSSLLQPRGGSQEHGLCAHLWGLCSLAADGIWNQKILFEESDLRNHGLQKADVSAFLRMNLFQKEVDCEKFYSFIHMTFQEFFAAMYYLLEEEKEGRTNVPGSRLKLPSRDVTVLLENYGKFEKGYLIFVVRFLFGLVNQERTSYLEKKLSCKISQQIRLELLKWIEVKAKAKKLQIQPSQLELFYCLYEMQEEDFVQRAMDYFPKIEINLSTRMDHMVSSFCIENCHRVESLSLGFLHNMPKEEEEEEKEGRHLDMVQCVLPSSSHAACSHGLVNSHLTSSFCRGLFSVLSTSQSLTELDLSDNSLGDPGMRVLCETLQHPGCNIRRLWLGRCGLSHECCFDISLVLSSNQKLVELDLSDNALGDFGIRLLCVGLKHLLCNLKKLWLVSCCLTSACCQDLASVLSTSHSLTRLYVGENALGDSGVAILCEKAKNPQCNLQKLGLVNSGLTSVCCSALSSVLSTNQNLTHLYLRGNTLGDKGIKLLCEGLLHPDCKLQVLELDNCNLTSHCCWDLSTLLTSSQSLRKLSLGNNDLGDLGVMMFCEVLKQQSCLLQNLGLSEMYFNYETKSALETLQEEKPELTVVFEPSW

Compound | IC50
CCc1cccc(CC)c1NC(=O)NS(=O)(=O)c1ncc(C(C)(C)O)s1 [Compound 172, N-(2,6-diethylphenylcarbamoyl)-5-(2-hydroxypropan-2-yl)thiazole-2-sulfonamide] | 1000 to 5000 nM
CC(C)c1ccc(F)c(C(C)C)c1NC(=O)NS(=O)(=O)c1ccc(C(C)(C)O)s1 [Compound 185, N-(3-fluoro-2,6-diisopropylphenylcarbamoyl)-5-(2-hydroxypropan-2-yl)thiophene-2-sulfonamide] | 1000 to 5000 nM
CC(C)c1ccc(Cl)c(C(C)C)c1NC(=O)NS(=O)(=O)c1cc(C(C)(C)O)cs1 [Compound 180, N-(3-chloro-2,6-diisopropylphenylcarbamoyl)-4-(2-hydroxypropan-2-yl)thiophene-2-sulfonamide] | < 1000 nM
Cc1sc(S(=O)(=O)NC(=O)Nc2c(C(C)C)ccc(Cl)c2C(C)C)cc1C(C)(C)O [Compound 153, N-(3-chloro-2,6-diisopropylphenyl-carbamoyl)-4-(2-hydroxypropan-2-yl)-5-methylthiophene-2-sulfonamide] | 5000 to 15000 nM
CCc1cc(Cl)cc(CC)c1NC(=O)NS(=O)(=O)c1cc(C(C)(C)O)cs1 [Compound 171, N-(4-chloro-2,6-diethylphenylcarbamoyl)-4-(2-hydroxypropan-2-yl) thiophene-2-sulfonamide] | 1000 to 5000 nM
CC(C)c1ccc(F)c(C(C)C)c1NC(=O)NS(=O)(=O)c1ncc(C2(O)CCCCC2)s1 [Compound 167, N-(3-fluoro-2,6-diisopropylphenylcarbamoyl)-5-(1-hydroxycyclohexyl) thiazole-2-sulfonamide] | 5000 to 15000 nM
Cc1nc(S(=O)(=O)NC(=O)Nc2c(C(C)C)ccc(F)c2C(C)C)sc1C(C)(C)O [Compound 150, N-(3-fluoro-2,6-diisopropylphenylcarbamoyl)-5-(2-hydroxypropan-2-yl)-4-methylthiazole-2-sulfonamide] | < 1000 nM
Cc1nc(S(=O)(=O)NC(=O)Nc2c(C(C)C)ccc(Cl)c2C(C)C)sc1C(C)(C)O [Compound 149, N-(3-chloro-2,6-diisopropylphenylcarbamoyl)-5-(2-hydroxypropan-2-yl)-4-methylthiazole-2-sulfonamide] | 15000 to 35000 nM
Cc1sc(S(=O)(=O)NC(=O)Nc2c(C(C)C)cc(Cl)cc2C(C)C)cc1C(C)(C)O [Compound 156, N-(4-chloro-2,6-diisopropylphenyl-carbamoyl)-4-(2-hydroxypropan-2-yl)-5-methylthiophene-2-sulfonamide] | < 1000 nM
CC(C)c1cncc(C(C)C)c1NC(=O)NS(=O)(=O)c1ncc(C(C)(C)O)s1 [Compound 138] | 1000 to 5000 nM
COc1ccc2c(c1NC(=O)NS(=O)(=O)c1ncc(C(C)(C)O)s1)CCC2 [Compound 182, 5-(2-hydroxypropan-2-yl)-N-(5-methoxy-2,3-dihydro-1H-inden-4-ylcarbamoyl)thiazole-2-sulfonamide] | 1000 to 5000 nM
CC(C)c1cc(C#N)cc(C(C)C)c1NC(=O)NS(=O)(=O)c1ccc(C(C)(C)O)s1 [Compound 184, N-(4-cyano-2,6-diisopropylphenylcarbamoyl)-5-(2-hydroxypropan-2-yl) thiophene-2-sulfonamide] | < 1000 nM
CCc1cccc(CC)c1NC(=O)NS(=O)(=O)c1cc(C(C)(C)O)cs1 [Compound 173, N-(2,6-diethylphenylcarbamoyl)-4-(2-hydroxypropan-2-yl)thiophene-2-sulfonamide] | 15000 to 35000 nM
Cc1nc(S(=O)(=O)NC(=O)Nc2c(C(C)C)cc(Cl)cc2C(C)C)sc1C(C)(C)O [Compound 151, N-(4-chloro-2,6-diisopropylphenylcarbamoyl)-5-(2-hydroxypropan-2-yl)-4-methylthiazole-2-sulfonamide] | 1000 to 5000 nM
N#Cc1c2c(c(NC(=O)NS(=O)(=O)c3ccc(C4(O)CC4)s3)c3c1CCC3)CCC2 [Compound 178, N-(8-cyano-1,2,3,5,6,7-hexahydros-indacen-4-ylcarbamoyl)-5-(1-hydroxycyclopropyl) thiophene-2-sulfonamide] | 1000 to 5000 nM

Next, values leading:

IC50 | Compound
< 1000 nM | O=C(Nc1c2c(cc3c1CCC3)CCC2)NS(=O)(=O)c1ncc(C2(O)CCC2)s1 [Compound 197, N-(1,2,3,5,6,7-hexahydros-indacen-4-ylcarbamoyl)-5-(1-hydroxycyclo-butyl)thiazole-2-sulfonamide]
1000 to 5000 nM | CC(C)c1ccc(C#N)c(C(C)C)c1NC(=O)NS(=O)(=O)c1cc(C(C)(C)O)cs1 [Compound 262, N-(3-cyano-2,6-diisopropylphenylcarbamoyl)-4-(2-hydroxypropan-2-yl) thiophene-2-sulfonamide]
< 1000 nM | CC(C)c1cc(C#N)cc(C(C)C)c1NC(=O)NS(=O)(=O)c1cc(C2(O)CC2)co1 [Compound 235, N-(4-cyano-2,6-diisopropylphenyl-carbamoyl)-4-(1-hydroxycyclo-propyl)furan-2-sulfonamide]
1000 to 5000 nM | CC(C)c1cccc(C(C)C)c1NC(=O)NS(=O)(=O)c1ccc(C2(O)CC2)s1 [Compound 201, N-(2,6-diisopropylphenylcarbamoyl)-5-(1-hydroxycyclopropyl) thiophene-2-sulfonamide]
< 1000 nM | N#Cc1c2c(c(NC(=O)NS(=O)(=O)c3cc(C4(O)CC4)cs3)c3c1CCC3)CCC2 [Compound 223, N-(8-cyano-1,2,3,5,6,7-hexahydros-indacen-4-ylcarbamoyl)-4-(1-hydroxycyclo-propyl)thiophene-2-sulfonamide]
1000 to 5000 nM | O=C(Nc1c2c(c(Cl)c3c1CCC3)CCC2)NS(=O)(=O)c1ccc(C2(O)CC2)s1 [Compound 199, N-(8-chloro-1,2,3,5,6,7-hexahydros-indacen-4-ylcarbamoyl)-5-(1-hydroxycyclopropyl) thiophene-2-sulfonamide]
1000 to 5000 nM | CC(C)(O)c1ncsc1S(=O)(=O)NC(=O)Nc1c2c(cc3c1CCC3)CCC2 [Compound 266]
< 1000 nM | O=C(Nc1c2c(cc3c1CCC3)CCC2)NS(=O)(=O)c1cc(C2(O)CC2)cs1 [Compound 216]
< 1000 nM | CC(C)(O)c1cnc(S(=O)(=O)NC(=O)Nc2c3c(c(Cl)c4c2CCC4)CCC3)s1 [Compound 221, N-(8-chloro-1,2,3,5,6,7-hexahydros-indacen-4-ylcarbamoyl)-5-(2-hydroxypropan-2-yl)thiazole-2-sulfonamide]
< 1000 nM | CC(C)(O)c1csc(S(=O)(=O)NC(=O)Nc2c3c(c(C#N)c4c2CCC4)CCC3)c1 [Compound 224, N-(8-cyano-1,2,3,5,6,7-hexahydros-indacen-4-ylcarbamoyl)-4-(2-hydroxypropan-2-yl)thiophene-2-sulfonamide]
< 1000 nM | CC(C)c1cccc(C(C)C)c1NC(=O)NS(=O)(=O)c1ncc(C(C)(C)O)s1 [Compound 227, N-(2,6-diisopropylphenyl-carbamoyl)-5-(2-hydroxypropan-2-yl)thiazole-2-sulfonamide]
1000 to 5000 nM | CC(C)c1ccc(Cl)c(C(C)C)c1NC(=O)NS(=O)(=O)c1cnc(C(C)(C)O)s1 [Compound 271]
5000 to 15000 nM | CC(C)c1ccc(C#N)c(C(C)C)c1NC(=O)NS(=O)(=O)c1cc(C(C)(C)O)c(Cl)s1 [Compound 265, 5-chloro-N-(3-cyano-2,6-diisopropylphenylcarbamoyl)-4-(2-hydroxypropan-2-yl) thiophene-2-sulfonamide]
5000 to 15000 nM | CC(C)(O)c1ncsc1S(=O)(=O)NC(=O)Nc1c2c(c(Cl)c3c1CCC3)CCC2 [Compound 273]
< 1000 nM | O=C(Nc1c2c(c(Cl)c3c1CCC3)CCC2)NS(=O)(=O)c1cc(C2(O)CC2)cs1 [Compound 210, N-(8-chloro-1,2,3,5,6,7-hexahydros-indacen-4-ylcarbamoyl)-4-(1-hydroxycyclo-propyl)thiophene-2-sulfonamide]
1000 to 5000 nM | CC(C)c1cc(F)cc(C(C)C)c1NC(=O)NS(=O)(=O)c1cnc(C(C)(C)O)s1 [Compound 269]
< 1000 nM | O=C(Nc1c2c(cc3c1CCC3)CCC2)NS(=O)(=O)c1ccc(C2(O)CC2)s1 [Compound 202, N-(1,2,3,5,6,7-hexahydros-indacen-4-ylcarbamoyl)-5-(1-hydroxycyclopropyl) thiophene-2-sulfonamide]
1000 to 5000 nM | Cc1cc(C(C)C)c(NC(=O)NS(=O)(=O)c2cnc(C(C)(C)O)s2)c(C(C)C)c1 [Compound 272]
< 1000 nM | O=C(Nc1c2c(c(F)c3c1CCC3)CCC2)NS(=O)(=O)c1ccc(C2(O)CC2)s1 [Compound 200]
